Experimental data published in US12636279B2, “Choline salt forms of an HIV capsid inhibitor” (Gilead Sciences, Inc., priority 2017, dated 2026).

Experiments:
[1] = tested on: HIV-IIIb; assay: Test A: Antiviral Assay in MT4 Cells; assay type: cell-based, HIV-1; settings: Human immunodeficiency virus 1, IIIB, MT4, 120 h
Protocol: 1 mL Aliquots of MT4 cells were pre-infected for 3 hours at 37° C. with 25 μL of cell growth medium (mock-infected) or a fresh 1:250 dilution of an HIV-IIIb concentrated ABI stock (0.004 m.o.i.). Infected and uninfected cells were diluted in cell growth media and 35 μL (2000 cells) was added to each well of the assay plates.
Assay plates were then maintained in a humidified, 5% CO2 incubator at 37° C. After 5 days of incubation, 25 μL of 2× concentrated CellTiter-Glo™ Reagent (catalog #G7573, Promega Biosciences, Inc., Madison, WI) was added to each well of the assay plate. Cell lysis was carried out by incubating at room temperature for 10 minutes and then chemiluminescence was read using an Envision plate reader (PerkinElmer).

[2] = tested on: Human Liver Hepatocytes; assay: Test D: Metabolic Stability in Cultured Human Liver Hepatocytes; assay type: in vitro ADME; settings: pooled cryopreserved human hepatocytes, […] radiolabelled compound, 1 million cells/mL, 0-6 hours; calculated from stability data
Protocol: Test D. Metabolic Stability in Cultured Human Liver Hepatocytes
The final hepatocyte concentration was 1 million cells/mL. The hepatocyte/compound reaction mixture was dissolved in InVitroGRO™ KHB buffer (catalog #Z99074, BioreclamationIVT, Inc., Baltimore, MD) at pH 7.4. The incubations were performed in duplicate. A cell free control and a positive control were included in the incubations. The incubations were carried out with gentle shaking in a 37° C. incubator under a humid atmosphere of 95% air/5% CO2 (v/v). Aliquots (100 mL) were removed after 0, 1, 3, and 6 hours and added to 200 mL quenching solution that comprised 0.1% (v/v) TFA in 5% water/95% acetonitrile (v/v). The samples were placed on a shaker for 10 min, followed by centrifugation at 3000 g for 30 min. The samples of the supernatant were analyzed on a Dionex HPLC/PerkinElmer Flow Scintillation Analyzer as described below.
The column was a Phenomenex Synergi fusion RP (150×4.6 mm, 4 mm) maintained at 32 degrees Celsius. Mobile Phase A consisted of 0.1% (v/v) TFA in 99% water/1% acetonitrile (v/v). Mobile Phase B consisted of 0.1% (v/v) TFA in 5% water/95% acetonitrile (v/v). […]
Metabolic stability was determined by measuring the change in relative abundance of metabolites and parent over time and calculating from it the rate of disappearance of the parent compound. […]

[3] = Atropisomer equilibrium and interconversion in solution; assay type: physicochemical; settings: rotation along C—C bond between atropisomers

Cn1nc(NS(C)(=O)=O)c2c(Cl)ccc(-c3ccc(C#CC(C)(C)O)nc3[C@H](Cc3cc(F)cc(F)c3)NC(=O)Cn3nc(C(F)(F)F)c4c3C(F)(F)[C@@H]3C[C@H]43)c21 [Compound B]
EC50 [1]: 2.99 nM

CC(C)(C#Cc1ccc(-c2ccc(Cl)c3c(NS(C)(=O)=O)nn(CC(F)(F)F)c23)c([C@H](Cc2cc(F)cc(F)c2)NC(=O)Cn2nc(C(F)(F)F)c3c2C(F)(F)[C@@H]2C[C@H]32)n1)S(C)(=O)=O [Compound 1, N—((S)-1-(3-(4-Chloro-3-(methylsulfonamido)-1-(2,2,2-trifluoroethyl)-1H-indazol-7-yl)-6-(3-methyl-3-(methylsulfonyl)but-1-yn-1-yl)pyridin-2-yl)-2-(3,5-difluorophenyl)ethyl)-2-((3bS,4aR)-5,5-difluoro-3-(trifluoromethyl)-3b,4,4a,5-tetrahydro-1H-cyclopropa[3,4]cyclopenta[1,2-c]pyrazol-1-yl)acetamide]
Predicted Human Hepatic Clearance [2]: 0.01 L/h/kg | rotational energy barrier [3]: about 24 kcal/mol
